Among the test systems are A549 NSCLC; CAKI-1 renal; CCRF-CEM leukemia; COLO 205 colon; HL-60(TB) leukemia; HS 578T breast; K-562 leukemia; M14 melanoma; MDA-N; OVCAR-3 ovarian; PC-3 prostate; SF-268 CNS; T-47D breast.
What all share (assay): NCI tumour cell line growth inhibition, 48 h

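Where inhibition never reached the appropriate level, the endpoint shown equals the highest concentration tested. Otherwise, values were interpolated linearly from a five-concentration, 48-hour dose response in 96-well plates. TGI marks complete inhibition of growth.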 Bounds are passed on as bounds.

For the molecule `Cc1ccc(S(=O)(=O)ON2C(=O)c3c(N)c(C#N)c(-c4ccccc4)c(-c4ccccc4)c3C2=O)cc1`, the TGI with A549 NSCLC is 43 µM; in the assay on CAKI-1 renal it was 29.8 µM; in the assay with CCRF-CEM leukemia it was 27 µM; with COLO 205 colon, 33.1 µM; in the assay with HL-60(TB) leukemia, 11.7 µM; with HS 578T breast, over 100 µM. In addition, the TGI in the assay with K-562 leukemia was over 100 µM; with M14 melanoma it was 29.5 µM; with MDA-N, 32.2 µM; in the assay on OVCAR-3 ovarian, 27.2 µM; in the assay with PC-3 prostate, 32.7 µM; in the assay with SF-268 CNS it was over 100 µM. The TGI with T-47D breast was 38.1 µM.

Regarding `[N-]=[N+]=CC(=O)OCC1NC(=O)C(COC(=O)C=[N+]=[N-])NC1=O` (stereo not given), the TGI in the assay on A549 NSCLC, in the assay on CAKI-1 renal, in the assay on CCRF-CEM leukemia, with COLO 205 colon, in the assay with HL-60(TB) leukemia and in the assay on HS 578T breast was over 100 µM throughout. Also, the TGI in the assay with K-562 leukemia, in the assay with M14 melanoma, with MDA-N, in the assay with OVCAR-3 ovarian, with PC-3 prostate and with SF-268 CNS was over 100 µM in each case. In the assay with T-47D breast, the TGI was over 100 µM.

Consider `NC(Cc1ccccc1)c1nn[nH]n1` (stereo not given), for which the TGI in the assay with A549 NSCLC, in the assay on CAKI-1 renal, with CCRF-CEM leukemia, in the assay on COLO 205 colon, with HL-60(TB) leukemia and in the assay with HS 578T breast was over 100 µM each time. The TGI in the assay on K-562 leukemia, in the assay on M14 melanoma, with MDA-N, with OVCAR-3 ovarian, in the assay with PC-3 prostate and in the assay on SF-268 CNS was over 100 µM each time. Also, the TGI in the assay on T-47D breast was over 100 µM.

Consider `CCCn1c(=O)c2nn3c(=O)n(CCC)c(=O)c3nn2c1=O`, for which the TGI in the assay on A549 NSCLC, in the assay on CAKI-1 renal, in the assay on CCRF-CEM leukemia, in the assay on COLO 205 colon, with HL-60(TB) leukemia and in the assay on HS 578T breast was over 100 µM throughout. Further, the TGI in the assay on K-562 leukemia, in the assay with M14 melanoma, in the assay with MDA-N, in the assay with OVCAR-3 ovarian, in the assay with PC-3 prostate and with SF-268 CNS was over 100 µM each time. Further, the TGI in the assay with T-47D breast was over 100 µM.

For the molecule `Nc1nc(Br)nc2ncn(C3CC(O)C(CO)O3)c12` (stereo not given), the TGI is over 100 µM in the assay on A549 NSCLC; over 100 µM in the assay on CAKI-1 renal; over 100 µM in the assay with CCRF-CEM leukemia; over 100 µM in the assay with COLO 205 colon; 9.35 µM in the assay with HL-60(TB) leukemia; over 100 µM with HS 578T breast. Also, the TGI in the assay on K-562 leukemia is over 100 µM; in the assay on M14 melanoma, 33.4 µM; in the assay with MDA-N, over 100 µM; with OVCAR-3 ovarian, over 100 µM; in the assay on PC-3 prostate, over 100 µM; in the assay on SF-268 CNS, over 100 µM. In the assay with T-47D breast, this molecule yielded a TGI of over 100 µM.

As to `C=CC(OC(=O)C(C)C)c1ccc(OC(=O)C(C)C)cc1` (stereo not given), the TGI with A549 NSCLC was 36.9 µM; in the assay on CAKI-1 renal it was 10.2 µM; in the assay on CCRF-CEM leukemia, 10.7 µM; in the assay with COLO 205 colon, 27.6 µM; in the assay on HL-60(TB) leukemia, 21 µM; in the assay on HS 578T breast, over 100 µM. The TGI was 66.6 µM with K-562 leukemia; 21.4 µM in the assay on M14 melanoma; 25.9 µM with MDA-N; 31.1 µM with OVCAR-3 ovarian; 21.9 µM in the assay with PC-3 prostate; 62.2 µM in the assay with SF-268 CNS. In the assay with T-47D breast, this molecule had a TGI of 69.8 µM.

With `Cc1cc(C)c(S(=O)(=O)N(CCCN)OCCON(CCCN)S(=O)(=O)c2c(C)cc(C)cc2C)c(C)c1`, the TGI with A549 NSCLC was over 100 µM; with CAKI-1 renal it was over 71.4 µM; in the assay on CCRF-CEM leukemia, over 24.9 µM; with COLO 205 colon, over 100 µM; in the assay on HL-60(TB) leukemia, over 21.9 µM; in the assay on HS 578T breast it was 30.3 µM. In addition, the TGI in the assay with K-562 leukemia is over 100 µM; with M14 melanoma, over 100 µM; with MDA-N it was 8.22 µM; with OVCAR-3 ovarian, 3.93 µM; in the assay with PC-3 prostate it was 4.02 µM; in the assay with SF-268 CNS, 5.37 µM. Further, the TGI in the assay with T-47D breast is over 45.1 µM.

Regarding `Cc1c2ccccc2c(C2C3C(=O)N(c4cccc5ccccc45)C(=O)C3ON2Cc2ccc(CC(N)=O)cc2)c2ccccc12` (stereo not given), the TGI with A549 NSCLC is over 50 µM; in the assay with CAKI-1 renal it was over 50 µM; in the assay with CCRF-CEM leukemia it was over 50 µM; with COLO 205 colon, 14.6 µM; in the assay on HL-60(TB) leukemia, over 50 µM; in the assay with HS 578T breast, over 50 µM. The TGI is over 50 µM in the assay on K-562 leukemia; over 50 µM in the assay with M14 melanoma; 35.6 µM with MDA-N; over 50 µM with OVCAR-3 ovarian; over 50 µM in the assay on PC-3 prostate; over 50 µM with SF-268 CNS. Besides, in the assay with T-47D breast, the TGI was over 50 µM.

In the case of `O=C(c1ccccc1)C(Nc1ccc2ccccc2c1)c1ccccc1` (stereo not given), the TGI with A549 NSCLC was over 100 µM; with CAKI-1 renal, over 100 µM; in the assay on CCRF-CEM leukemia, 51.2 µM; in the assay on COLO 205 colon it was 33.7 µM; in the assay on HL-60(TB) leukemia, 36.4 µM; in the assay with HS 578T breast, over 100 µM. The TGI is over 87.6 µM in the assay with K-562 leukemia; over 100 µM with M14 melanoma; over 100 µM in the assay with MDA-N; 78.2 µM in the assay on OVCAR-3 ovarian; 98.7 µM in the assay on PC-3 prostate; over 100 µM in the assay on SF-268 CNS. In the assay on T-47D breast, this molecule came in with a TGI of over 100 µM.

For `CC(C)OC(=O)NNc1cccc(Cl)c1`, the TGI with A549 NSCLC, in the assay on CAKI-1 renal, in the assay with CCRF-CEM leukemia, in the assay on COLO 205 colon, with HL-60(TB) leukemia and with HS 578T breast was over 100 µM each time. For the same molecule, the TGI with K-562 leukemia, in the assay on M14 melanoma, in the assay with MDA-N, in the assay on OVCAR-3 ovarian, in the assay with PC-3 prostate and with SF-268 CNS was over 100 µM each time. In the assay with T-47D breast, the TGI is over 100 µM.

(Values after PubChem BioAssay (NCI).)
